Results as given in patent US8592460B2, “Amino-pyridine derivatives as S1P1 /EDG1 receptor agonists” (Actelion Pharmaceuticals Ltd., priority 2007, dated 2013).

What follows are molecules tested on circulating lymphocytes (assay: Assessment of in vivo efficacy: circulating lymphocytes after oral administration). Conditions: 6 h after oral administration of 10 mg/kg to normotensive male Wistar rats, compared to vehicle-treated group; mean ± SEM.
Design: species or system rat
Description: The efficacy of the compounds of formula (I) is assessed by measuring the circulating lymphocytes after oral administration of 3 to 30 mg/kg of a compound of formula (I) to normotensive male Wistar rats. The animals are housed in climate-controlled conditions with a 12 h-light/dark cycle, and have free access to normal rat chow and drinking water. Blood is collected before and 3, 6 and 24 h after drug administration. Full blood is subjected to hematology using Advia Hematology system (Bayer Diagnostics, Zurich, Switzerland).
All data are presented as mean±SEM. Statistical analyses are performed by analysis of variance (ANOVA) using Statistica (StatSoft) and the Student-Newman-Keuls procedure for multiple comparisons. The null hypothesis is rejected when p<0.05.
Lymphocyte counts 6 h after oral administration have been measured for 39 of the 258 exemplified compounds and are in the range of −82% to −48% with an average of −65%.

CCc1cc(-c2nc(-c3cc(C)nc(N(CC)CC)c3)no2)cc(C)c1OC[C@@H](O)CNC(=O)CO [Example 80, N—((S)-3-{4-[3-(2-diethylamino-6-methyl-pyridin-4-yl)-[1,2,4]oxadiazol-5-yl]-2-ethyl-6-methyl-phenoxy}-2-hydroxy-propyl)-2-hydroxy-acetamide] and CCc1cc(-c2nnc(-c3cc(C)nc(N(CC)CC)c3)s2)cc(C)c1OC[C@@H](O)CNC(=O)CO [Example 94, N—((S)-3-{4-[5-(2-diethylamino-6-methyl-pyridin-4-yl)-[1,3,4]thiadiazol-2-yl]-2-ethyl-6-methyl-phenoxy}-2-hydroxy-propyl)-2-hydroxy-acetamide] are within error of each other in Lymphocyte counts: −68 ± 2% for the first, −75 ± 6% for the second.

First: COc1cc(-c2noc(-c3cc(C)nc(N(C)C(C)C)c3)n2)cc(Cl)c1OC[C@@H](O)CO [Example 149, (S)-3-(2-chloro-4-{5-[2-(isopropyl-methyl-amino)-6-methyl-pyridin-4-yl]-[1,2,4]oxadiazol-3-yl}-6-methoxy-phenoxy)-propane-1,2-diol]
Second: CCc1cc(-c2noc(-c3cc(C)nc(NC(C)C)c3)n2)cc(C)c1OC[C@@H](O)CO [Example 199, (S)-3-{2-ethyl-4-[5-(2-isopropylamino-6-methyl-pyridin-4-yl)-[1,2,4]oxadiazol-3-yl]-6-methyl-phenoxy}-propane-1,2-diol]
The Lymphocyte counts of the first is lower: −82 ± 2% for the first, −72 ± 3% for the second.

In the case of CCc1cc(-c2noc(-c3cc(C)nc(N4CCCC4)c3)n2)cc(C)c1OC[C@@H](O)CNC(=O)CO [Example 188, N—((S)-3-{2-ethyl-6-methyl-4-[5-(2-methyl-6-pyrrolidin-1-yl-pyridin-4-yl)-[1,2,4]oxadiazol-3-yl]-phenoxy}-2-hydroxy-propyl)-2-hydroxy-acetamide], the Lymphocyte counts is reported as −76 ± 1%.
